“Also recorded” adds a separate entry of the source.
Key:
[1] = tested on: MC-38 cells (murine adenocarcinoma); test: MC-38 tumor implant model: tumor volume after peptide vaccination; assay type: in vivo, C57Bl/6 mice; conditions: for effect on tumor volume: MC-38 tumor implant in C57Bl/6 mice, vs CFA/IFA; for peptide efficacy, MC-38 + B6 (Tumor Implant): summary table, Yes/No
Experimental: MC-38 tumor implant in-vivo experiments. At 6 weeks of age, mice were immunized in CFA/IFA, PBS, and vaccine groups. Each group received subcutaneous injections (100 ul PBS, 50 ul CFA with 50 ul PBS, 50 ug per peptide with 50 ul CFA) once every 10-14 days for a total of three doses. See Table 9 for peptides included in vaccine compositions. CFA was replaced with IFA for the second and third vaccines. Two weeks after the final vaccine, we subcutaneously implanted 4×10^4 MC-38 cells (murine adenocarcinoma), and measured tumor growth with Vernier calipers 2-3 times per week. Tumor volume was calculated as length×width×height×π/6, which is the standard volume calculation of an ellipsoid. Mice were sacrificed when tumor size in control mice reached greater than 1000 mm^3.

[2] = tested on: colon tumor burden in AOM mice (Azoxymethane + FVB); test: AOM mouse model: colon tumor count after peptide vaccination; assay type: in vivo; conditions: for effect on colon tumor burden (tumor count): AOM treated FVB mice, vs control group (CFA/IFA; PBS for IGF1R, PRL3, RCAS1); for peptide efficacy, Azoxymethane + FVB (Induced): summary table, Yes/No
Experimental: AOM mouse in-vivo experiments. At 6 weeks of age, FVB mice were immunized in CFA/IFA, PBS, and vaccine groups. Each group received subcutaneous injections (100 ul PBS, 50 ul CFA with 50 ul PBS, 50 ug per peptide with 50 ul CFA) once every 10-14 days for a total of three doses and a booster was given every 4-5 weeks after the third vaccine. See Table 7 for peptides included in vaccine compositions. CFA was replaced with IFA after the first vaccine. Seven days after the third vaccine, mice were injected with Azoxymethane (AOM) at 10 mg/kg, twice weekly for 6 weeks. At 26 weeks of age, all mice were sacrificed and tumors in the colon were counted.

[3] = tested on: small bowel tumor burden in APCmin mice; test: APCmin survival study: small bowel tumor count at sacrifice; assay type: in vivo; conditions: boosters every 4-5 weeks, vs CFA/IFA
Experimental: At 4-6 weeks of age, mice were immunized with CFA/IFA, PBS, and vaccine groups. Each group received subcutaneous injections (100 ul PBS, 50 ul CFA with 50 ul PBS, 50 ug per peptide with 50 ul CFA) once every 7-10 days for a total of three doses and a booster vaccine was given every 4-5 weeks after the third vaccine. See Table 6 for peptides included in vaccine compositions. CFA was replaced with IFA after the first vaccine. […] At sacrifice, small intestines were collected and small bowel tumors counted.

[4] = tested on: colon tumor burden in APCmin mice; test: APCmin mouse model: colon tumor count after peptide vaccination; assay type: in vivo; conditions: for effect on colon tumor burden (tumor count): APCmin mice, vs CFA/IFA control, 50 ug per peptide s.c.; for peptide efficacy, APCmin Colon (Spontaneous): summary table, Yes/No
Experimental: (§1) Offspring from APCmin were genotyped by PCR for the presence of the Min mutation using primers as follows: Wild-Type: 5′-[…]-3′ (SEQ ID NO: 46), Common 5′-[…]-3′ (SEQ ID NO: 47), Mutant: 5′-[…]-3′ (SEQ ID NO: 48). Both male and female mice testing positive for the Min mutation were included in the study and randomized into groups.
(§2) At 4-6 weeks of age, mice were immunized in CFA/IFA, PBS, and vaccine groups. Each group received subcutaneous injections (100 ul PBS, 50 ul CFA with 50 ul PBS, 50 ug per peptide with 50 ul CFA) once every 7-10 days for a total of three doses and one booster was given 4-5 weeks after the third vaccine. See Table 5 for peptides included in vaccine compositions. CFA was replaced with IFA after the first vaccine. All mice were sacrificed at 14 to 17 weeks of age, the gastrointestinal tracts were collected and tumors counted.

[5] = tested on: small bowel tumor burden in APCmin mice; test: APCmin mouse model: small bowel tumor count after peptide vaccination; assay type: in vivo; conditions: for effect on small bowel tumor burden (tumor count): APCmin mice, vs CFA/IFA control, 50 ug per peptide s.c.; for peptide efficacy, APCmin Small Bowel (Spontaneous): summary table, Yes/No
Experimental: as §1, §2

CDC25B: peptide vaccine of CDC25B #38 (p130-150) and #39 (p405-427), 50 ug per peptide with CFA/IFA (chain 1 QAIQAASRIIRNEQFAIRRFQ; chain 2 VDGKHQDLKYISPETMVALLTGK; with CFA/IFA adjuvant)
effect on tumor volume [1]: significantly inhibits
peptide efficacy, MC-38 + B6 (Tumor Implant) [1]: Yes
effect on colon tumor burden (tumor count) [2]: vaccine efficacy; also recorded: significantly inhibits
peptide efficacy, Azoxymethane + FVB (Induced) [2]: Yes
effect on small bowel tumor burden (tumor count) [3]: does not significantly inhibit
effect on colon tumor burden (tumor count) [4]: does not significantly inhibit; also recorded: lack of CDC25B vaccine efficacy
peptide efficacy, APCmin Colon (Spontaneous) [4]: No
effect on small bowel tumor burden (tumor count) [5]: significantly inhibits; also recorded: vaccine efficacy
peptide efficacy, APCmin Small Bowel (Spontaneous) [5]: Yes

COX2: peptide vaccine of COX-2 #32, #33, #34, 50 ug per peptide with CFA/IFA (chain 1 FKGFWNVVNNIPFLRN; chain 2 GLVPGLMMYATIWLREH; chain 3 GEVGFQIINTASIQSLIC; with CFA/IFA adjuvant)
effect on tumor volume [1]: significantly inhibits
peptide efficacy, MC-38 + B6 (Tumor Implant) [1]: Yes
effect on colon tumor burden (tumor count) [2]: vaccine efficacy; also recorded: significantly inhibits
peptide efficacy, Azoxymethane + FVB (Induced) [2]: Yes
effect on small bowel tumor burden (tumor count) [3]: does not significantly inhibit
effect on colon tumor burden (tumor count) [4]: does not significantly inhibit; also recorded: lack of COX2 vaccine efficacy
peptide efficacy, APCmin Colon (Spontaneous) [4]: No
effect on small bowel tumor burden (tumor count) [5]: significantly inhibits; also recorded: vaccine efficacy
peptide efficacy, APCmin Small Bowel (Spontaneous) [5]: Yes

IGF1R: peptide vaccine of IGF1R #1, #2, #3, #4, 50 ug per peptide with CFA/IFA (chain 1 VVTGYVKIRHSHALV; chain 2 TQYAVYVKAVTLTMV; chain 3 LVIMLYVFHRKRNNS; chain 4 GMAYLNANKFVHRDL; with CFA/IFA adjuvant)
effect on tumor volume [1]: does not significantly inhibit
peptide efficacy, MC-38 + B6 (Tumor Implant) [1]: No
effect on colon tumor burden (tumor count) [2]: lack of IGF1R vaccine efficacy; also recorded: does not significantly inhibit
peptide efficacy, Azoxymethane + FVB (Induced) [2]: No
effect on colon tumor burden (tumor count) [4]: lack of IGF1R vaccine efficacy; also recorded: does not significantly inhibit
peptide efficacy, APCmin Colon (Spontaneous) [4]: No
effect on small bowel tumor burden (tumor count) [5]: vaccine efficacy; also recorded: significantly inhibits
peptide efficacy, APCmin Small Bowel (Spontaneous) [5]: Yes
